For 24 compounds, IC50 results are on record in US20250122202A1, “EGFR INHIBITOR, PREPARATION METHOD THEREFOR AND USE THEREOF” (SHANDONG NEW TIME PHARMACEUTICAL CO., LTD., priority 2021, published 2025).

EGFR-Del19/T790M/C797S kinase, sequence (P00533 25-1210 T790M/C797S limits assumed, form open): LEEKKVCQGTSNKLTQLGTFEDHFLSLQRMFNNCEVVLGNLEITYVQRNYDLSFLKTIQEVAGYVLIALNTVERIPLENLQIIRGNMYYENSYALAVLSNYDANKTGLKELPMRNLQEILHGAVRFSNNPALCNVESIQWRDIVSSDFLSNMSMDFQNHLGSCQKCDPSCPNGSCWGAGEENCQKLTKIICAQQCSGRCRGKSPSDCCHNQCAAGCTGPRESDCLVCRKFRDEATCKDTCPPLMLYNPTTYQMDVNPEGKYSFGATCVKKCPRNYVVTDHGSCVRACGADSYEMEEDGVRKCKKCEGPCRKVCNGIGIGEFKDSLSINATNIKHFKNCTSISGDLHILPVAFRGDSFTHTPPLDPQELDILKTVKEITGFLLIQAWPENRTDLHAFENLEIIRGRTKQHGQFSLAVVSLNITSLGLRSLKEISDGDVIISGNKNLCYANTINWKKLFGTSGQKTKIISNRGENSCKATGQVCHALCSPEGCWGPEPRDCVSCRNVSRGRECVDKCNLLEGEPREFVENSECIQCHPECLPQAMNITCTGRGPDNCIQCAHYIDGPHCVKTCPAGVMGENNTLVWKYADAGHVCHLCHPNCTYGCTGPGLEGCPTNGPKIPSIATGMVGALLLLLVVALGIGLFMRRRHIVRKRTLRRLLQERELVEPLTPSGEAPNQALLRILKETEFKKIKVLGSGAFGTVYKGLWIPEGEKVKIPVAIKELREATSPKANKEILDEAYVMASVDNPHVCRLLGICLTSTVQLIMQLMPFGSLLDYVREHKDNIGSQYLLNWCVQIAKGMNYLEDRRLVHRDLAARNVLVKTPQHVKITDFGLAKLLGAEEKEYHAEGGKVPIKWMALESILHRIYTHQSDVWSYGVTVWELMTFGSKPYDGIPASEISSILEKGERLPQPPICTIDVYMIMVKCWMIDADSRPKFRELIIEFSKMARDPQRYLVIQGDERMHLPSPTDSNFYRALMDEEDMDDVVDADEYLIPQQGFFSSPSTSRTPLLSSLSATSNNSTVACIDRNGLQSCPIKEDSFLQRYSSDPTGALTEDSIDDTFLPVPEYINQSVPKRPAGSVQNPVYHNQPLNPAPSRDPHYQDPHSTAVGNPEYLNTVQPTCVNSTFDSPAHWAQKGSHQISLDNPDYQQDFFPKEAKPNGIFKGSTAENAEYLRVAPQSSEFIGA

The first experiment concerns the target EGFR-Del19/T790M/C797S kinase (Homo sapiens, UniProt P00533, C797S/T790M, form not given). The experiment is described as follows: In-vitro enzyme experiment 2 (HTRF kinase assay), EGFR Del19 T790M C797S. Format: biochemical. The following applies: read-out: enzyme inhibition IC50 (nM) EGFR-Del19/T790M/C797S. As for the experimental part: The specific experiment was as follows: • 1. […] Test method of activity of compound • a) a compound diluent was transferred to each well of an assay plate (784075, Greiner) using Echo 550; • b) the assay plate was sealed and centrifuged at 1,000 g for 1 min; • c) 2×EGFR (D770-N771 ins NPG T790M) was prepared in a 1× kinase buffer; • d) 5 μl of the 2×EGFR (D770-N771 ins NPG T790M) was added to a 384-well assay plate (784075, Greiner); • e) the assay plate was centrifuged at 1,000 g for 30 s and incubated at room temperature for 10 min; • f) 2× TK-substrate-biotin (2 μM) and ATP were added to the 1× kinase buffer and mixed; • g) the reaction was started after adding 5 μl of the TK-substrate-biotin (2 μM) and ATP mixture; • h) the assay plate was centrifuged at 1,000 g for 30 s; and the assay plate was sealed and incubated at room temperature for 40 min; • i) 4× Sa-XL 665 was prepared in an HTRF detection buffer; • j) 5 μl of the Sa-XL 665 and 5 μl of a TK-antibody-cryptate were added to each well of the assay plate; • k) the assay plate was centrifuged at 1,000 g for 30 s and incubated at room temperature for 1 h; and • l) fluorescence signals at 615 nm (cryptate) and 665 nm (XL665) were read on an Envision 2104 reader. • 3. Data analysis • 3.1 Calculation of ratio (665/615 nm) of each well • 3.2 Calculation of inhibition rate
[formula] • 3.3 Calculation of IC50 value of compound and drawing dose-effect curve of compound • IC50 values were calculated using GraphPad 6.0 by applying a non-linear regression curve (dose-effect relationship-variable slope) of the logarithm of the compound concentration versus the inhibition rate.
The preparation of the kinase buffer, the test method of the activity of the compound, and the data analysis referred to the relevant definitions in example 117, wherein step c) of the test method of the activity of the compound was replaced by preparing 2×EGFR Del19 T790M C797S in the 1× kinase buffer.
Regarding `CN1CCN(c2ccc(Nc3nc(NC4(CO)CC4)c4c(C(=O)c5ccc(F)cc5)c[nH]c4n3)cc2)CC1` [Example 10], the IC50 fell in the range of 10 to 100 nM. On the same count and under the same terms, the same measure for `CN1CCN(c2ccc(Nc3nc(NC4(CO)CCCC4)c4c(C(=O)c5ccc(F)cc5)c[nH]c4n3)cc2)CC1` [Example 11]: 100 to 600 nM; for `CN1CCN(c2ccc(Nc3nc(NC4CCCCC4)c4c(C(=O)c5ccc(F)cc5)c[nH]c4n3)cc2)CC1` [Example 41]: 100 to 600 nM; for `CN1CCN(c2ccc(Nc3nc(N[C@@H]4CCN(S(C)(=O)=O)C4)c4c(C(=O)c5ccc(F)cc5)c[nH]c4n3)cc2)CC1` [Example 49]: 100 to 600 nM. Still for that read-out and setting: the same measure for `CN1CCN(c2ccc(Nc3nc(N[C@@H]4CCCN(S(C)(=O)=O)C4)c4c(C(=O)c5ccc(F)cc5)c[nH]c4n3)cc2)CC1` [Example 50]: 100 to 600 nM; for `CN1CCN(c2ccc(Nc3nc(N[C@H]4CCCOC4)c4c(C(=O)c5ccc(F)cc5)c[nH]c4n3)cc2)CC1` [Example 57]: 100 to 600 nM; for `CN1CCN(c2ccc(Nc3nc(N[C@@H]4CCCOC4)c4c(C(=O)c5ccc(F)cc5)c[nH]c4n3)cc2)CC1` [Example 58]: 100 to 600 nM.

In the case of `CN1CCN(c2ccc(Nc3nc(NCC4CCOCC4)c4c(C(=O)c5ccc(F)cc5)c[nH]c4n3)cc2)CC1` [Example 59], the IC50 was in the range of 100 to 600 nM. Still for that read-out and setting: the result for `CN1CCN(c2ccc(Nc3nc(NC4CCN(S(=O)(=O)C5CC5)CC4)c4c(C(=O)c5ccc(F)cc5)c[nH]c4n3)cc2)CC1` [Example 63] reads 100 to 600 nM; that for `CN1CCN(c2ccc(Nc3nc(N[C@H]4CCOC4)c4c(C(=O)c5ccc(F)cc5)c[nH]c4n3)cc2)CC1` [Example 67], 100 to 600 nM; that for `CN1CCN(c2ccc(Nc3nc(N[C@@H]4CCOC4)c4c(C(=O)c5ccc(F)cc5)c[nH]c4n3)cc2)CC1` [Example 68], 100 to 600 nM. Turning to `CO[C@H]1CC[C@H](Nc2nc(Nc3ccc(N4CCN(C)CC4)cc3)nc3[nH]cc(C(=O)c4ccc(F)cc4)c23)CC1` [Example 73], the IC50 was 100 to 600 nM. Turning to `COc1cc(N2CCN(C)CC2)ccc1Nc1nc(N[C@H]2CC[C@H](CO)CC2)c2c(C(=O)c3ccc(F)cc3)c[nH]c2n1` [Example 80], the IC50 was 100 to 600 nM. As for `O=C(c1ccc(F)cc1)c1c[nH]c2nc(Nc3ccc(N4CCOCC4)c(F)c3)nc(N[C@H]3CC[C@H](CO)CC3)c12` [Example 82], the IC50 was 100 to 600 nM.

Consider `CN1CCN(c2ccc(Nc3nc(OC4CCOCC4)c4c(C(=O)c5ccc(F)cc5)c[nH]c4n3)cc2)CC1` [Example 84], for which the IC50 was in the range of 100 to 600 nM.

Consider `CN1CCC(Nc2nc(Nc3ccc(N4CCN(C)CC4)cc3)nc3[nH]cc(C(=O)c4ccc(F)cc4)c23)CC1` [Example 85], for which the IC50 was 100 to 600 nM. As to `O=C(c1ccc(F)cc1)c1c[nH]c2nc(Nc3ccc(N4CCOCC4)cc3)nc(N[C@@H]3CC[C@@H](CO)OC3)c12` [Example 94], the IC50 fell in the range of 10 to 100 nM. On the same count and under the same terms, the same measure for `O=C(c1ccccc1)c1c[nH]c2nc(Nc3ccc(N4CCOCC4)cc3)nc(N[C@H]3CC[C@H](CO)CC3)c12` [Example 98]: 100 to 600 nM; for `O=C(c1ccc(F)c(F)c1F)c1c[nH]c2nc(Nc3ccc(N4CCOCC4)cc3)nc(N[C@H]3CC[C@H](CO)CC3)c12` [Example 108]: 100 to 600 nM; for `COc1nn(C)cc1Nc1nc(N[C@H]2CC[C@H](CO)CC2)c2c(C(=O)c3ccc(F)cc3)c[nH]c2n1` [Example 112]: 100 to 600 nM.

The test system of a further experiment is A549 EGFR-WT. The experiment in a line: Cell proliferation inhibition experiment (CCK-8), A549. The following applies: Homo sapiens, A549, 72 h, read-out: cell proliferation inhibition IC50 (μM) A549.
In the case of `COc1cc(N2CCC(N3CCN(C)CC3)CC2)ccc1Nc1ncc(Cl)c(Nc2ccccc2P(C)(C)=O)n1` [Brigatinib, reference compound], the IC50 is 6.13 µM. As to `CN1CCN(c2ccc(Nc3nc(N[C@@H]4CCCN(S(=O)(=O)C5CC5)C4)c4c(C(=O)c5ccc(F)cc5)c[nH]c4n3)cc2)CC1` [Example 3], the IC50 is 2.67 µM.

The same experiment, now with this note: Homo sapiens, A549, 72 h, read-out: cell proliferation inhibition IC50 (μM) A549, 72 h, CCK-8; Table 5 numeric.
Turning to `Cn1cc(Nc2nc(N[C@@H]3CCCN(S(=O)(=O)C4CC4)C3)c3c(C(=O)c4ccc(F)cc4)c[nH]c3n2)cn1` [Example 4], the IC50 is 6.53 µM.

With `CN1CCN(c2ccc(Nc3nc(N[C@H]4CCCN(S(=O)(=O)C5CC5)C4)c4c(C(=O)c5ccc(F)cc5)c[nH]c4n3)cc2)CC1` [Example 21], the IC50 amounted to 0.61 µM.
